Measurements from patent US4370489A, “Herbicidal compounds” (Hoechst Aktiengesellschaft, priority 1976, dated 1983).

Tests used:
Alopecurus = assay: Post-emergence greenhouse pot trial, annual blackgrass (Example I, Table I); type: in vivo, annual blackgrass (Alopecurus); settings: greenhouse pots, 4 weeks
Method: (§1) Seeds of weed grasses were sown in pots filled with loamy soil and placed in the greenhouse for germination and emergence. As soon as the plants had developed 3 or 4 leaves, they were sprayed with wettable powder formulations, suspended in water, of compounds according to the invention.
(§2) The results and also the results of all following examples were evaluated 4 weeks later according to the following scheme:
(§3) 4 is still considered an acceptable herbicidal effect in weeds and a satisfactory preserving effect in crop plants (cf. Bolle, Nachrichtenblatt des Deutschen Pflanzenschutzdienstes 16, 1964, pages 92-94).
(§4) Effect on weed grasses in a post-emergence trial in pots
(§5) in the greenhouse (Evaluation scheme)

Digitaria = assay: Post-emergence greenhouse pot trial, Digitaria (Example I, Table I); type: in vivo; settings: greenhouse pots, 4 weeks
Method: as §1, §2, §3, §4, §5

Echinochloa = assay: Post-emergence greenhouse pot trial, Echinochloa (Example I, Table I); type: in vivo; settings: greenhouse pots, 4 weeks
Method: as §1, §2, §3, §4, §5

Setaria = assay: Post-emergence greenhouse pot trial, Setaria (Example I, Table I); type: in vivo; settings: greenhouse pots, 4 weeks
Method: as §1, §2, §3, §4, §5

Lolium = assay: Post-emergence greenhouse pot trial, Lolium (Example I, Table I); type: in vivo; settings: greenhouse pots, 4 weeks
Method: as §1, §2, §3, §4, §5

weed grasses = assay: Pre-emergence greenhouse pot trial, weed grasses overall (Example V); type: in vivo; settings: in words
Method: as §2
In a greenhouse the compounds to be tested were sprayed on the surface of the soil directly after sowing. […] Dicotyledonous crop plants (the same as used in Example I) were not damaged by the applied amounts.
Effect on weed grasses in a pre-emergence process (evalua-
tion scheme) experiment in pots in the greenhouse.

wild oat = assay: Post-emergence trial in the greenhouse, wild oat (Example VII, Table VII); type: in vivo; settings: 31 kg/hectare, emulsion concentrate, 4 weeks after treatment
Method: as §2
In a greenhouse some of the compounds of the invention were sprayed on plants of wild oat, the compounds being used as emulsion concentrates.
(§6) Post-emergence trial in the greenhouse
Effect on wild oat 4 weeks after treatment
Dose 31 kg/hectare of active compound (as emulsion

barnyard grass = assay: Post-emergence trial in the greenhouse, barnyard grass (Example VIII, Table VIII); type: in vivo; settings: 31 kg/hectare, wettable powder, 4 weeks after treatment, 3 to 4 leaf-stage
Method: as §2
In a similar trial some of the compounds of the invention were sprayed in the form of wettable powder formulations on barnyard grass in the 3 to 4 leaf-stage.
as §6
Effect on barnyard grass 4 weeks after treatment
Dose 31 kg/hectare of active compound (as wettable

SMILES | Effect on weed grasses (evaluation scheme number), Alopecurus (Alopecurus; 0.15 kg/hectare) | Effect on weed grasses (evaluation scheme number), Alopecurus (Alopecurus; 0.62 kg/hectare) | Effect on weed grasses (evaluation scheme number), Alopecurus (Alopecurus; 2.5 kg/hectare) | Effect on weed grasses (evaluation scheme number), Digitaria (Digitaria; 0.15 kg/hectare) | Effect on weed grasses (evaluation scheme number), Digitaria (Digitaria; 0.62 kg/hectare) | Effect on weed grasses (evaluation scheme number), Digitaria (Digitaria; 2.5 kg/hectare) | Effect on weed grasses (evaluation scheme number), Echinochloa (Echinochloa; 0.15 kg/hectare) | Effect on weed grasses (evaluation scheme number), Echinochloa (Echinochloa; 0.62 kg/hectare) | Effect on weed grasses (evaluation scheme number), Echinochloa (Echinochloa; 2.5 kg/hectare) | Effect on weed grasses (evaluation scheme number), Setaria (Setaria; 0.15 kg/hectare) | Effect on weed grasses (evaluation scheme number), Setaria (Setaria; 0.62 kg/hectare) | Effect on weed grasses (evaluation scheme number), Setaria (Setaria; 2.5 kg/hectare) | Effect on weed grasses (evaluation scheme number), Lolium (Lolium; 0.15 kg/hectare) | Effect on weed grasses (evaluation scheme number), Lolium (Lolium; 0.62 kg/hectare) | Effect on weed grasses (evaluation scheme number), Lolium (Lolium; 2.5 kg/hectare) | effect in pre-emergence treatment compared with comparative compound A (weed grasses) | effect (number) on wild oat (wild oat) | effect (number) on barnyard grass (barnyard grass)
CCOC(=O)C(C)Oc1ccc(Oc2ccc(Br)cc2Cl)cc1 (stereo not drawn) [Compound 1b, 4-(2'-chloro-4'-bromophenoxy)-α-phenoxy-propionic acid ethyl ester] | 6 (75.0 to <85.0) | 1 (100) | 1 (100) | 7 (65.0 to <75.0) | 1 (100) | 1 (100) | 1 (100) | 1 (100) | 1 (100) | 1 (100) | 1 (100) | 1 (100) | 6 (75.0 to <85.0) | 2 (97.5 to <100) | 1 (100) | Analogous results | 1 (100) | 
CC(C)OC(=O)C(C)Oc1ccc(Oc2ccc(Br)cc2Cl)cc1 (stereo not drawn) [Compound 1c, 4-(2'-chloro-4'-bromophenoxy)-α-phenoxy-propionic acid isopropyl ester] | 6 (75.0 to <85.0) | 3 (95.0 to <.97.5) | 1 (100) | 7 (65.0 to <75.0) | 4 (90.0 to <95.0) | 1 (100) | 1 (100) | 1 (100) | 1 (100) | 3 (95.0 to <.97.5) | 1 (100) | 1 (100) | 5 (85.0 to <90.0) | 4 (90.0 to <95.0) | 3 (95.0 to <.97.5) | Analogous results | 1 (100) | 1 (100)
CCCCOC(=O)C(C)Oc1ccc(Oc2ccc(Br)cc2Cl)cc1 (stereo not drawn) [Compound 1d, 4-(2'-chloro-4'-bromophenoxy)-α-phenoxy-propionic acid n-butyl ester] | 3 (95.0 to <.97.5) | 2 (97.5 to <100) | 1 (100) | 6 (75.0 to <85.0) | 1 (100) | 1 (100) | 2 (97.5 to <100) | 1 (100) | 1 (100) | 2 (97.5 to <100) | 1 (100) | 1 (100) | 6 (75.0 to <85.0) | 4 (90.0 to <95.0) | 2 (97.5 to <100) | Analogous results | 1 (100) | 
CC(C)COC(=O)C(C)Oc1ccc(Oc2ccc(Br)cc2Cl)cc1 (stereo not drawn) [Compound 1e, 4-(2'-chloro-4'-bromophenoxy)-α-phenoxy-propionic acid isobutyl ester] |  |  |  |  |  |  |  |  |  |  |  |  |  |  |  |  | 2 (97.5 to <100) | 
CC(Oc1ccc(Oc2ccc(Br)cc2Cl)cc1)C(=O)O (stereo not drawn) [Compound 2b] |  |  |  |  |  |  |  |  |  |  |  |  |  |  |  |  |  | 3 (95.0 to <.97.5)
CC(Oc1ccc(Oc2ccc(Br)cc2Cl)cc1)C(=O)O (stereo not drawn) [Compound 2c] |  |  |  |  |  |  |  |  |  |  |  |  |  |  |  |  |  | 1 (100)
CC(Oc1ccc(Oc2ccc(Br)cc2Cl)cc1)C(=O)O (stereo not drawn) [Compound 2d] |  |  |  |  |  |  |  |  |  |  |  |  |  |  |  |  |  | 1 (100)
CC(Oc1ccc(Oc2ccc(Br)cc2Cl)cc1)C(=O)O (stereo not drawn) [Compound 2e] |  |  |  |  |  |  |  |  |  |  |  |  |  |  |  |  |  | 4 (90.0 to <95.0)
